For the assay, the target named is MYT1 protein (Homo sapiens (Human), UniProt Q99640). Put plainly: Test for binding to ATP binding site of MYT1 (Kinase Tracer 178 / Eu-Anti-GST antibody TR-FRET). The note with it: ATP binding site of MYT1, 30 minutes at room temperature. Here is the method: The binding capacity of each compound to the ATP binding site of MYT1 Kinase protein was evaluated. 5× Kinase Buffer A (manufactured by Thermo Fisher Scientific Inc., PV3189) was diluted to 5 times with Milli-Q water, thereby preparing 1× Kinase Buffer. Using 1× Kinase Buffer, MYT1 protein (manufactured by Carna Biosciences, Inc.) was diluted to a concentration of 0.005 μM and Eu-Anti-GST Antibody was diluted to a concentration of 1 μM. […] To a 96 well-plate, 2.5 μL of a compound diluted with DMSO was added. […] The mixture was well mixed and then allowed to stand at room temperature for 30 minutes. Thereafter, fluorescence wavelengths of 665 nm and 615 nm generated by irradiation with excitation light of 340 nm were detected using Envision (manufactured by PerkinElmer). The proportion of Tracer bound to MYT1 protein was calculated for every condition by dividing the intensity at the fluorescence wavelength of 665 nm by the intensity at the fluorescence wavelength of 615 nm.
Chain of MYT1 protein (Q99640 whole entry): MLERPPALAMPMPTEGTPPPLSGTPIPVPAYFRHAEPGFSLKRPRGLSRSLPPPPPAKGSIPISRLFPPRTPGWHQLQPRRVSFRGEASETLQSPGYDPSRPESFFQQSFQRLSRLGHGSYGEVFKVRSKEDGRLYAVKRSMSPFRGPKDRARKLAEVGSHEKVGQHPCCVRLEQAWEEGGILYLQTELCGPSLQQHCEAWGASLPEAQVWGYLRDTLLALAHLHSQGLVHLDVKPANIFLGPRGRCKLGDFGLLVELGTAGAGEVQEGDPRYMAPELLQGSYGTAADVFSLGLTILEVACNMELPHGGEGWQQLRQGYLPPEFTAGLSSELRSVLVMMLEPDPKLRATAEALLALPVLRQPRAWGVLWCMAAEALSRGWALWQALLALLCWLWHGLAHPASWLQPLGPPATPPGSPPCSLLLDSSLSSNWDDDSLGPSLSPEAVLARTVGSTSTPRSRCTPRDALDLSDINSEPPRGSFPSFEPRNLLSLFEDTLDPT

As usually defined, the IC50 is the concentration that gives 50% inhibition. Low readings indicate greater potency, high ones weaker potency. `CCc1cc2c(-c3ccc(Cl)c4[nH]ncc34)c(N)c(=O)[nH]c2c2ccccc12` [Compound B38, 3-Amino-4-(7-chloro-1H-indazol-4-yl)-6-ethyl-1H-benzo[h]quinolin-2-one] registered an IC50 of 4.6 nM.

Compound `COc1cc2c(-c3ccc(F)c4[nH]ncc34)c(N)c(=O)[nH]c2c2nccnc12` [Compound G10, 8-Amino-7-(7-fluoro-1H-indazol-4-yl)-5-methoxy-10H-pyrido[2,3-f]quinoxalin-9-one] showed an IC50 of 2.2 nM.

`CC(C)Cc1cc2c(-c3ccc(F)c4[nH]ncc34)c(N)c(=O)[nH]c2c2cccnc12` [Compound C105, 3-Amino-4-(7-fluoro-1H-indazol-4-yl)-6-(2-methylpropyl)-1H-1,7-phenanthrolin-2-one] had an IC50 of 5 nM.

Turning to `Nc1c(-c2ccc(Cl)c3[nH]ncc23)c2cc(Cl)c3ccccc3c2[nH]c1=O` [Compound B45, 3-Amino-6-chloro-4-(7-chloro-1H-indazol-4-yl)-1H-benzo[h]quinolin-2-one], the IC50 was found to be 33 nM.

The compound `Nc1c(-c2cccc3[nH]ccc23)c2cc(Cl)ccc2[nH]c1=O` [Compound A53, 3-Amino-6-chloro-4-(1H-indol-4-yl)-1H-quinolin-2-one] returned an IC50 of 980 nM.

In turn, `CC(C)(C)c1cc2c(-c3ccc(F)c4[nH]ncc34)c(N)c(=O)[nH]c2c2cccnc12` [Compound C225, 3-Amino-6-(tert-butyl)-4-(7-fluoro-1H-indazol-4-yl)-1H-1,7-phenanthrolin-2-one] registered an IC50 of 1000 nM.

Take `Nc1c(-c2ccc(F)c3[nH]ncc23)c2cc(N3CCN4CCOC[C@H]4C3)c3cccnc3c2[nH]c1=O` [Compound D12, 6-[(9aR)-3,4,6,7,9,9a-hexahydro-1H-pyrazino[2,1-c][1,4]oxazin-8-yl]-3-amino-4-(7-fluoro-1H-indazol-4-yl)-1H-1,10-phenanthrolin-2-one]: the IC50 was 49 nM.

With `Nc1c(-c2ccc(F)c3[nH]ncc23)c2cc(OC3CCCCC3)c3ncccc3c2[nH]c1=O` [Compound C17, 3-Amino-6-cyclohexyloxy-4-(7-fluoro-1H-indazol-4-yl)-1H-1,7-phenanthrolin-2-one], the IC50 amounted to 4.5 nM.

For `Nc1c(-c2ccc(F)c3[nH]ncc23)c2cc(Br)c3cnccc3c2[nH]c1=O` [Compound P3, 3-Amino-6-bromo-4-(7-fluoro-1H-indazol-4-yl)-1H-1,8-phenanthrolin-2-one], the IC50 worked out at 12 nM.

As for `N#CC1(COc2cc3c(-c4ccc(F)c5[nH]ncc45)c(N)c(=O)[nH]c3c3cccnc23)CC1` [Compound C54, 1-[[3-Amino-4-(7-fluoro-1H-indazol-4-yl)-2-oxo-1H-1,7-phenanthrolin-6-yl]oxymethyl]cyclopropane-1-carbonitrile], the IC50 was determined as 1.4 nM.

`Nc1c(-c2cncc3[nH]ncc23)c2cc(Br)c3ncccc3c2[nH]c1=O` [Compound C80, 3-Amino-6-bromo-4-(1H-pyrazolo[3,4-c]pyridin-4-yl)-1H-1,7-phenanthrolin-2-one] showed an IC50 of 100 nM.

In turn, `Cc1ccc2c(n1)c(I)cc1c(-c3ccc(F)c4[nH]ncc34)c(N)c(=O)[nH]c12` [Compound C181, 3-Amino-4-(7-fluoro-1H-indazol-4-yl)-6-iodo-8-methyl-1H-1,7-phenanthrolin-2-one] registered an IC50 of 23 nM.

Consider `Nc1c(-c2ccc(F)c3[nH]ncc23)c2cc(C3CCCO3)c3ncccc3c2[nH]c1=O` (centres unmarked) [Compound C96, 3-Amino-4-(7-fluoro-1H-indazol-4-yl)-6-(oxolan-2-yl)-1H-1,7-phenanthrolin-2-one], for which the IC50 was found to be 5.3 nM.

`CN1CCN(c2cc3c(-c4ccc(F)c5[nH]ncc45)c(N)c(=O)[nH]c3c3nccnc23)CC1` [Compound G7, 8-Amino-7-(7-fluoro-1H-indazol-4-yl)-5-(4-methylpiperazin-1-yl)-10H-pyrido[2,3-f]quinoxalin-9-one] gave an IC50 of 2.5 nM.

Regarding `Nc1c(-c2ccc(Cl)c3[nH]ncc23)c2ccc3ccccc3c2[nH]c1=O` [Compound B44, 3-Amino-4-(7-chloro-1H-indazol-4-yl)-1H-benzo[h]quinolin-2-one], the IC50 is 14 nM.

With `CC(C)Nc1cc2c(-c3ccc(F)c4[nH]ncc34)c(N)c(=O)[nH]c2c2ncccc12` [Compound D20, 3-Amino-4-(7-fluoro-1H-indazol-4-yl)-6-(propan-2-ylamino)-1H-1,10-phenanthrolin-2-one], the IC50 was determined as 7 nM.

`N#C[C@H]1C[C@H](c2cc3c(-c4ccc(F)c5[nH]ncc45)c(N)c(=O)[nH]c3c3cccnc32)C1` [Compound C179, (1r,3r)-3-[3-Amino-4-(7-fluoro-1H-indazol-4-yl)-2-oxo-1H-1,7-phenanthrolin-6-yl]cyclobutane-1-carbonitrile] yielded an IC50 of 0.84 nM.

The compound `N#Cc1cc2c(-c3ccc(C#N)c4[nH]ncc34)c(N)c(=O)[nH]c2c2cccnc12` [Compound C149, 3-Amino-4-(7-cyano-1H-indazol-4-yl)-2-oxo-1H-1,7-phenanthroline-6-carbonitrile] gave an IC50 of 380 nM.

In the case of `Nc1c(-c2ccc(F)c3[nH]ncc23)c2cc(OC3CCS(=O)(=O)CC3)c3ncccc3c2[nH]c1=O` [Compound C47, 3-Amino-6-(1,1-dioxothian-4-yl)oxy-4-(7-fluoro-1H-indazol-4-yl)-1H-1,7-phenanthrolin-2-one], the IC50 is 4 nM.

Take `Cc1c(F)c2c(-c3cc(F)c(F)c4[nH]ncc34)c(N)c(=O)[nH]c2c2cccnc12` [Compound C219, 3-Amino-4-(6,7-difluoro-1H-indazol-4-yl)-5-fluoro-6-methyl-1H-1,7-phenanthrolin-2-one]: the IC50 is 2.1 nM.

In the case of `Nc1c(-c2ccc(F)c3[nH]ncc23)c2cc(O[C@H]3C[C@H](F)C3)c3ncccc3c2[nH]c1=O` [Compound C42, 3-Amino-6-((1r,3r)-3-fluorocyclobutyl)oxy-4-(7-fluoro-1H-indazol-4-yl)-1H-1,7-phenanthrolin-2-one], the IC50 was 2.7 nM.

`Nc1c(-c2ccc(Cl)c3[nH]ncc23)c2cc(Cl)cc(C3CC3)c2[nH]c1=O` [Compound A24, 3-Amino-6-chloro-4-(7-chloro-1H-indazol-4-yl)-8-cyclopropyl-1H-quinolin-2-one] gave an IC50 of 110 nM.

As to `N#Cc1cc2c(-c3ccc(C#N)c4[nH]ncc34)c(N)c(=O)[nH]c2c2ccccc12` [Compound B42, 3-Amino-4-(7-cyano-1H-indazol-4-yl)-2-oxo-1H-benzo[h]quinoline-6-carbonitrile], the IC50 is 250 nM.

In the case of `Nc1c(-c2ccc(Cl)c3[nH]ncc23)c2cc(C3CCC3)c3ncccc3c2[nH]c1=O` [Compound C147, 3-Amino-4-(7-chloro-1H-indazol-4-yl)-6-cyclobutyl-1H-1,7-phenanthrolin-2-one], the IC50 was determined as 5.2 nM.

As to `Nc1c(-c2ccc(Cl)c3[nH]ncc23)c2cc(C3CCN(C4COC4)CC3)ccc2[nH]c1=O` [Compound A36, 3-Amino-4-(7-chloro-1H-indazol-4-yl)-6-[1-(oxetane-3-yl)piperidin-4-yl]-1H-quinolin-2-one], the IC50 was 18 nM.

The compound `CCc1cc2c(-c3cc(F)c(F)c4[nH]ncc34)c(N)c(=O)[nH]c2c2cccnc12` [Compound C192, 3-Amino-4-(6,7-difluoro-1H-indazol-4-yl)-6-ethyl-1H-1,7-phenanthrolin-2-one] registered a half-inhibitory concentration (IC50) of 3.7 nM.

Take `CC(C)Oc1cc2c(-c3cc(F)c(Cl)c4[nH]ncc34)c(N)c(=O)[nH]c2c2cccnc12` [Compound C194, 3-Amino-4-(7-chloro-6-fluoro-1H-indazol-4-yl)-6-propan-2-yloxy-1H-1,7-phenanthrolin-2-one]: the IC50 turned out to be 1.6 nM.

`Cc1ccc2[nH]ncc2c1-c1c(N)c(=O)[nH]c2ccc(Cl)cc12` [Compound A63, 3-Amino-6-chloro-4-(5-methyl-1H-indazol-4-yl)-1H-quinolin-2-one]: the IC50 was determined as 710 nM.

`Nc1c(-c2cc(F)c(F)c3[nH]ncc23)c2cc(N3CCOCC3)c3ncccc3c2[nH]c1=O` [Compound C208, 3-Amino-4-(6,7-difluoro-1H-indazol-4-yl)-6-morpholin-4-yl-1H-1,7-phenanthrolin-2-one] showed an IC50 of 2.1 nM.

In turn, `Nc1c(-c2cc(F)c(F)c3[nH]ncc23)c2ccc3ncccc3c2[nH]c1=O` [Compound C197, 3-Amino-4-(6,7-difluoro-1H-indazol-4-yl)-1H-1,7-phenanthrolin-2-one] came in with a 50% inhibitory concentration (IC50) of 20 nM.

In turn, `Nc1c(-c2ccc(F)c3[nH]ncc23)c2cc(N3CC4(COC4)C3)c3ncccc3c2[nH]c1=O` [Compound C118, 3-Amino-4-(7-fluoro-1H-indazol-4-yl)-6-(2-oxa-6-azaspiro[3,3]heptan-6-yl)-1H-1,7-one] registered an IC50 of 2.3 nM.

On to `Nc1c(-c2ccc(F)c3[nH]ncc23)c2cc(C3CC4(CC4)C3)c3ncccc3c2[nH]c1=O` [Compound C175, 3-Amino-4-(7-fluoro-1H-indazol-4-yl)-6-spiro[2.3]hexan-5-yl-1H-1,7-phenanthrolin-2-one], for which the IC50 was 16 nM.

The compound `CC(C)(O)CCOc1cc2c(-c3ccc(F)c4[nH]ncc34)c(N)c(=O)[nH]c2c2cccnc12` [Compound C20, 3-Amino-4-(7-fluoro-1H-indazol-4-yl)-6-(3-hydroxy-3-methylbutoxy)-1H-1,7-phenanthrolin-2-one] had an IC50 of 3.6 nM.

In the case of `Nc1c(-c2cccc(O)c2)c2ccccc2[nH]c1=O` [Compound A66, 3-Amino-4-(3-hydroxyphenyl)-1H-quinolin-2-one], the IC50 is 380 nM.

Consider `Nc1c(-c2cc(F)c(F)c3[nH]ncc23)c2cc(OCCC(F)F)c3ncccc3c2[nH]c1=O` [Compound C214, 3-Amino-4-(6,7-difluoro-1H-indazol-4-yl)-6-(3,3-difluoropropoxy)-1H-1,7-phenanthrolin-2-one], for which the IC50 was found to be 1.7 nM.

These data come from patent US20260062412A1, “NITROGEN-CONTAINING HETEROCYCLIC COMPOUND HAVING MYT1 INHIBITORY ACTIVITY” (CHUGAI SEIYAKU KABUSHIKI KAISHA, priority 2023, published 2026).
